Where “and” joins values, the source holds several entries; their conditions need not be identical. Equal entries are not always repeated.
What was measured:
Format in all cases: in vivo, Mus musculus
[1] = Example 1: body weight and mortality of HepG2 tumor bearing humanized mice; settings: for Body Weight, Mean: OBI-3424 1 mg/kg IV, antibody 10 mg/kg IP (20 from Day 15)
Method: (§1) Each group contains five mice. The human hepatocellular carcinoma cell line HepG2 were subcutaneously inoculated to the advanced immune deficiency mice. Total of 30 mice were included in this study.
(§2) 3.1. […] The injection was performed using insulin syringe with the dosage of 10 mg/kg (Dosage of injection was changed to 20 mg/kg from Day 15) and injection volume of 10 mL/kg. […] The reference item was administered for G1. The procedure followed the standards of sample administration.
(§3) 3.2. The test item anti-hPD-L1 antibody or reference items were intraperitoneally injected to the mice on Day 8 after the inoculation of tumor cells. The injection was performed using insulin syringe with the dosage of 10 mg/kg (Dosage of injection was changed to 20 mg/kg from Day 15) and injection volume of 10 mL/kg. The test item anti-hPD-L1 was continuously administered on Day 8, 11, 15, 18, 22, 25, 29 and 32 for G4 and G6. The reference item was administered for G1. The procedure followed the standards of sample administration.
(§4) 3.3. […] The injection was performed using insulin syringe with the dosage of 1 mg/kg and injection volume of 5 mL/kg. […] The reference item was administered for G1. The procedure followed the standards of sample administration.
The measurement was performed from the next day of the inoculation. The animal body weights were measured and recorded twice per week.

[2] = test system: CD8^+ cytotoxic T cells (CTL) in tumor-infiltrating lymphocytes; assay: Example 1: flow cytometry, percentage of CTL cells in TILs
Method: (§5) Mice were sacrificed by CO2 euthanasia at the end of the study duration, and the connective tissue around tumor was resected. The tumor samples were then removed and weighed. The half tissue was fixed in 10% formaldehyde and then embedded in paraffin; the other half was prepared for the isolation of tumor-infiltrating lymphocytes (TILs).
(§6) The half of mouse tumors were dissected into smaller fragments using scalpels and then digested with a cocktail of collagenase, DNase I, and Hyaluronidase (Collagenase #C5138, DNase I #D5025, Hyaluronidase #H6254, SigmaAldrich) for at least 2 hours.
(§7) Cells were stained with the fluorescently conjugated surface antibodies and incubated for 30 minutes at 4° C., and then resuspended in staining buffer for flow cytometric analysis. Flow cytometry was done using a Navios EX Flow Cytometer (Beckman Coulter). Data were analyzed using the Kaluza Analysis Software (Beckman Coulter).

[3] = test system: CD4^+ T helper cells in tumor-infiltrating lymphocytes; assay: Example 1: flow cytometry, percentage of TH cells in TILs; settings: individual mice
Method: as §5, §6, §7

[4] = test system: NK cells in tumor-infiltrating lymphocytes; assay: Example 1: flow cytometry, percentage of NK cells in TILs; settings: individual mice
Method: as §5, §6, §7

[5] = test system: PD-L1^+ cells in tumor-infiltrating lymphocytes; assay: Example 1: flow cytometry, percentage of PD-L1 cells in TILs; settings: individual animal
Method: as §5, §6, §7

[6] = test system: HepG2 tumor; assay: Example 1: tumor volume, tumor weight and TGI in HepG2 tumor bearing humanized mice
Method: as §1
2.2. […] The subcutaneous injection volume was […].
as §2, §3, §4
The measurement was performed from the next day of the inoculation. The tumor volumes were measured and recorded twice a week (Mon., Thur.). Tumor volume was calculated by ellipsoid equation according to the records ((major axis×minor axis×minor axis)×(π/6)).
Tumor volumes were used to calculate tumor growth inhibition (TGI) rates according to the following formula: TGI (%)=[1−(Ti−T0)/(Ci−C0)]×100, where Ti and Ci indicate the mean tumor volume in the treatment groups and vehicle group at the end of the experiment (Day 35). Whereas, T0 and C0 indicate the mean tumor volumes in the treatment group and vehicle group at the beginning of the experiment (Day 1).
as §5

[7] = TILs, flow cytometer, individual mice
[8] = TILs, gate CD45^+CD8^+ cells, individual mice

anti-hPD-L1: Anti-Human PD-L1 antibody, Avelumab
Body Weight, Mean ([1]; Day 0, group mean): 22.87 g | Body Weight, Mean ([1]; Day 1, group mean): 22.73 g | Body Weight, Mean ([1]; Day 4, group mean): 23.32 g | Body Weight, Mean ([1]; Day 7, group mean): 23.48 g | Body Weight, Mean ([1]; Day 11, group mean): 24.17 g | Body Weight, Mean ([1]; Day 14, group mean): 23.74 g | Body Weight, Mean ([1]; Day 18, group mean): 23.56 g | Body Weight, Mean ([1]; Day 21, group mean): 23.37 g | Body Weight, Mean ([1]; Day 25, group mean): 23.70 g | Body Weight, Mean ([1]; Day 28, group mean): 23.57 g | Body Weight, Mean ([1]; Day 32, group mean): 22.55 g | Body Weight, Mean ([1]; Day 35, group mean): 23.35 g | mortality ([1]; one mouse (MI052) of G4): found dead on Day 34 | CD8^+ cytotoxic T cells (CTL) population in tumors compared with vehicle (in words) ([2]; Example 1, TILs at sacrifice, flow cytometry): not observed | CD25^+ CTL cells (CD45^+CD8^+ CD25^+) Total % [2, 7]: 0.27% and 0.30% and 0.21% and 0.63% | CTL cells (CD45^+CD8^+) Total % [2, 7]: 14.00% and 18.51% and 11.85% and 16.01% | PD-1^+ CTL cells (CD45^+CD8^+ PD-1^+) Total % [2, 7]: 17.16% and 16.84% and 12.16% and 16.68% | CTL cells (CD45^+CD8^+) CD45^+ Gated % ([2]; TILs, gate CD45^+ cells, individual mice): 57.51% and 57.17% and 56.56% and 70.33% | CD25^+ CTL cells (CD45^+CD8^+ CD25^+) CTL Gated % [2, 8]: 1.93% and 1.59% and 1.77% and 3.90% | PD-1^+ CTL cells (CD45^+CD8^+ PD-1^+) CTL Gated % [2, 8]: 97.44% and 88.98% and 94.63% and 98.61% | CD25^+ CTL cells (CD45^+CD8^+ CD25^+) Cell count ([2]; TILs, individual mice): 0.33 ×10^5 and 0.66 ×10^5 and 0.37 ×10^5 and 0.45 ×10^5 | CTL cells (CD45^+CD8^+) Cell count ([2]; TILs, individual mice): 17.08 ×10^5 and 40.72 ×10^5 and 20.97 ×10^5 and 11.56 ×10^5 | PD-1^+ CTL cells (CD45^+CD8^+ PD-1^+) Cell count ([2]; TILs, individual mice): 20.94 ×10^5 and 37.05 ×10^5 and 21.52 ×10^5 and 12.04 ×10^5 | CD25^+ TH cells (CD45^+CD4^+ CD25^+) Total % ([3]; flow cytometer): 1.19% and 1.34% and 1.01% and 1.14% | PD-1^+ TH cells (CD45^+CD4^+ PD-1^+) Total % ([3]; flow cytometer): 10.85% and 11.67% and 6.66% and 15.38% | TH cells (CD45^+CD4^+) Total % ([3]; flow cytometer): 9.82% and 12.42% and 6.81% and 15.92% | TH cells (CD45^+CD4^+) CD45^+ Gated % ([3]; gate CD45^+ cells): 40.34% and 38.36% and 32.51% and 69.93% | CD25^+ TH cells (CD45^+CD4^+CD25^+) TH Gated % ([3]; gate CD45^+CD4^+ cells): 12.12% and 10.75% and 14.76% and 7.16% | PD-1^+ TH cells (CD45^+CD4^+ PD-1^+) TH Gated % ([3]; gate CD45^+CD4^+ cells): 99.40% (2×) and 99.02% and 99.19% | CD25^+ TH cells (CD45^+CD4^+ CD25^+) Cell count [3]: 1.45 ×10^5 and 2.95 ×10^5 and 1.79 ×10^5 and 0.82 ×10^5 | PD-1^+ TH cells (CD45^+CD4^+ PD-1^+) Cell count [3]: 13.24 ×10^5 and 25.67 ×10^5 and 11.79 ×10^5 and 11.10 ×10^5 | TH cells (CD45^+CD4^+) Cell count [3]: 11.98 ×10^5 and 27.32 ×10^5 and 12.05 ×10^5 and 11.49 ×10^5 | CD16^+ NK cells (CD45^+CD56^+ CD16^+) Total % ([4]; flow cytometer): 0.44% and 0.80% and 0.62% and 0.48% | NK cells (CD45^+CD56^+) Total % ([4]; flow cytometer): 1.67% and 2.61% and 1.42% and 1.80% | PD-1^+ NK cells (CD45^+CD56^+PD-1^+) Total % ([4]; flow cytometer): 2.28% (2×) and 2.10% and 1.78% | NK cells (CD45^+CD56^+) CD45^+ Gated % ([4]; gate CD45^+ cells): 9.51% and 10.84% and 12.49% and 8.78% | CD16^+ NK cells (CD45^+CD56^+ CD16^+) NK Gated % ([4]; gate CD45^+CD56^+ cells): 26.13% and 30.65% and 43.46% and 26.39% | PD-1^+ NK cells (CD45^+CD56^+PD-1^+) NK Gated % ([4]; gate CD45^+CD56^+ cells): 99.56% and 97.23% and 88.77% and 91.52% | CD16^+ NK cells (CD45^+CD56^+ CD16^+) Cell count [4]: 0.54 ×10^5 and 1.76 ×10^5 and 1.10 ×10^5 and 0.35 ×10^5 | NK cells (CD45^+CD56^+) Cell count [4]: 2.04 ×10^5 and 5.74 ×10^5 and 2.51 ×10^5 and 1.30 ×10^5 | PD-1^+ NK cells (CD45^+CD56^+PD-1^+) Cell count [4]: 2.78 ×10^5 and 5.02 ×10^5 and 3.72 ×10^5 and 1.29 ×10^5 | CD45^+ cells Cell count (×10^6) [5]: 2.97 ×10^6 and 7.12 ×10^6 and 3.71 ×10^6 and 1.64 ×10^6 | CD45^+ cells Gated % [5]: 34.93% and 47.08% and 31.41% and 28.59% | CD45^+ cells Total % [5]: 24.35% and 32.38% and 20.95% and 22.77% | Total PD-L1^+ cells (PD-L1^+) Cell count (×10^5) [5]: 1.35 ×10^5 and 3.98 ×10^5 and 15.58 ×10^5 and 12.17 ×10^5 | Total PD-L1^+ cells (PD-L1^+), Total % [5]: 1.11% and 1.81% and 8.80% and 16.86% | Total PD-L1^+ cells (PD-L1^+), Total cells Gated % [5]: 1.43% and 2.38% and 11.79% and 19.02% | Total cells Cell count (×10^6) [5]: 9.42 ×10^6 and 16.72 ×10^6 and 13.21 ×10^6 and 6.40 ×10^6 | Total cells Gated % [5]: 77.18% and 75.98% and 74.62% and 88.63% | Total cells Total % [5]: 77.18% and 75.98% and 74.62% and 88.63% | Tumor volume, Mean ([6]; D 1, group mean, OBI-3424 1 mg/kg IV, antibody 10 mg/kg IP (20 from Day 15)): 409.71 mm^3 | Tumor volume, Mean ([6]; D 4, group mean, OBI-3424 1 mg/kg IV, antibody 10 mg/kg IP (20 from Day 15)): 316.07 mm^3 | Tumor volume, Mean ([6]; D 7, group mean, OBI-3424 1 mg/kg IV, antibody 10 mg/kg IP (20 from Day 15)): 304.50 mm^3 | Tumor volume, Mean ([6]; D 11, group mean, OBI-3424 1 mg/kg IV, antibody 10 mg/kg IP (20 from Day 15)): 342.83 mm^3 | Tumor volume, Mean ([6]; D 14, group mean, OBI-3424 1 mg/kg IV, antibody 10 mg/kg IP (20 from Day 15)): 371.47 mm^3 | Tumor volume, Mean ([6]; D 18, group mean, OBI-3424 1 mg/kg IV, antibody 10 mg/kg IP (20 from Day 15)): 491.18 mm^3 | Tumor volume, Mean ([6]; D 21, group mean, OBI-3424 1 mg/kg IV, antibody 10 mg/kg IP (20 from Day 15)): 675.33 mm^3 | Tumor volume, Mean ([6]; D 25, group mean, OBI-3424 1 mg/kg IV, antibody 10 mg/kg IP (20 from Day 15)): 812.95 mm^3 | Tumor volume, Mean ([6]; D 28, group mean, OBI-3424 1 mg/kg IV, antibody 10 mg/kg IP (20 from Day 15)): 866.97 mm^3 | Tumor volume, Mean ([6]; D 32, group mean, OBI-3424 1 mg/kg IV, antibody 10 mg/kg IP (20 from Day 15)): 1155.84 mm^3 | Tumor volume, Mean ([6]; D 35, group mean (mean±SEM), OBI-3424 1 mg/kg IV, antibody 10 mg/kg IP (20 from Day 15)): 1148.64±193.00 mm^3 and 1148.64 mm^3 | Tumor weight, Mean ([6]; D 35, group mean, OBI-3424 1 mg/kg IV, antibody 10 mg/kg IP (20 from Day 15)): *1010.73 mg | mean tumor volume compared with vehicle (in words) ([6]; Day 35, vs vehicle (G1), Student's t-test): No statistically significant difference | effect on tumor growth (conclusion in words) ([6]; HepG2 humanized mouse model): no effect on tumor growth | TGI ([6]; from mean tumor volumes Day 35 vs Day 1, relative to vehicle, OBI-3424 1 mg/kg IV, antibody 10 mg/kg IP (20 from Day 15)): 35.60%

Reference: patent publication US20240216401A1, “COMBINATION THERAPY BY USING AKR1C3-ACTIVATED COMPOUND WITH IMMUNE CHECKPOINT INHIBITOR” (OBI Pharma, Inc., priority 2021, published 2024)
